Measurements from patent US9775844B2, “Heterocyclic compounds and uses thereof” (Infinity Pharmaceuticals, Inc., priority 2014, dated 2017).
Where two headings read alike, the source gives them in different places.

Columns and labels:
phospho-AKT in monocytes = experiment: Ex vivo whole blood stimulation of phospho-AKT in monocytes of LLC-bearing mice; conditions: LLC-bearing mice treated with compound
phospho-AKT in T cells = experiment: Ex vivo whole blood stimulation of phospho-AKT in T cells of LLC-bearing mice; conditions: LLC-bearing mice treated with compound
[1] = tested on: bone marrow cells differentiating into MDSCs; experiment: Myeloid Derived Suppressor Cell differentiation assay; type: cell-based; conditions: FIG. 24A/24B
Method: A similar experiment was performed on bone marrow cells differentiating into MDSCs.

[2] = tested on: monocytic iMCs in CT26 subcutaneous tumors; experiment: Flow cytometry of tumor-associated myeloid cells, CT26 subcutaneous tumors; type: in vivo, mouse; conditions: FIG. 38B
Method: (§1) Flow cytometry was performed to obtain a more extensive cellular subset analysis. In particular, the study examined T cell vs. Myeloid cells, Myeloid cell subsets, Regulatory vs. effector T cells, and Tumor markers vs. WBC (e.g., PD-L1 expression on tumor).
(§2) Different populations of tumor-associated myeloid cells can be identified by flow cytometry, e.g., monocytic immature myeloid cells (iMC),Granulocytic iMCs/Neutrophils, Tumor Associated Macrophages (TAMs), and Granulocytic MDSCs. The different populations, and panels for detecting MDSCs, are described in Cancer Discovery 2011; 1:54-67. Tumors may vary in their myeloid cell composition.

[3] = Cellular membrane permeability; type: in vitro ADME
From the text: (§3) These properties indicate the compound's suitability for in vivo administration.

[4] = Oral exposure in the monkey; type: in vivo
[5] = tested on: suppression of spleen T cell proliferation by CT26 tumor cells; experiment: Ex vivo T cell proliferation assay with CT26 tumor cells (CFSE); type: cell-based, mouse; conditions: tumors from treated mice
Method: The duration of the study was 1 week under treatment. 5-6 week old female, Balb/c mice (Jackson Labs) implanted subcutaneously with 5×10^5 CT26 cells in 100 μl PBS. CT26 cells were cultured in RPMI supplemented with 10% FBS. Dosing commenced when tumors reached an average volume of 500-600 mm^3
For group 3 (αPD-L1), the mice were dosed once, IP, 200 ug (200 uL from 1 mg/ml stock).
Mice were monitored daily for adverse clinical effects. Body weights and tumor luminescent were measured two times per week. At the end of the study, tumors were harvested and cut into 3 parts; one piece for CTL killing assay, one piece for CSFE proliferation assay and one piece (split into two) for OCT/FFPE.
Spleens from 3 vehicle treated tumor bearing mice were physically dissociated in T cell media and passed through a 70 micron filter. After red cell lysis, the cells were pooled, brought up in PBS and stained with CFSE (invitrogen). After washing, these cells were brought up in 20 ml T cell media. Half the cells received Dynal mouse activator beads (CD3/CD28 crosslinking at a 1:1 […]). CD3/CD28 beads induce proliferation in splenocytes from tumor bearing mouse (data not shown).
The cells were treated with red cell lysis buffer, washed, and re-suspended in 10 ml T cell media. 2 mls of the each tumor cell suspension were plated into each of two 12 well plates. […]

[6] = Metabolic stability (microsome stability assay); type: in vitro ADME
Method: The stability of one or more subject compounds is determined according to standard procedures known in the art. For example, stability of one or more subject compounds is established by an in vitro assay. For example, an in vitro microsome stability assay is established that measures stability of one or more subject compounds when reacting with mouse, rat or human microsomes from liver. The microsome reaction with compounds is performed in 1.5 mL Eppendorf tube. Each tube contains 0.1 μL of 10.0 mg/mL NADPH; 75 μL of 20.0 mg/mL mouse, rat or human liver microsome; […] of 0.2 M phosphate buffer, and 425 μL of ddH2O. Negative control (without NADPH) tube contains 75 μL of 20.0 mg/mL mouse, rat or human liver microsome; […] of 0.2 M phosphate buffer, and 525 μL of ddH2O. The reaction is started by adding 1.0 μL of 10.0 mM tested compound. The reaction tubes are incubated at 37° C. 100 μL sample is collected into new Eppendorf tube containing 300 μL cold methanol at 0, 5, 10, 15, 30 and 60 minutes of reaction. Samples are centrifuged at 15,000 rpm to remove protein. Supernatant of centrifuged sample is transferred to new tube. Concentration of stable compound after reaction with microsome in the supernatant is measured by Liquid Chromatography/Mass Spectrometry (LC-MS).
as §3

TMD8 cell line = experiment: Combination isobologram in TMD8 cell line; type: cell-based; conditions: combination of Compound AA and Compound BB
LLC tumor brei = LLC tumor brei model with or without cyclophosphamide (tumor growth, FACS); type: in vivo, mouse
Method: In this experiment, treatment began when tumors reached approx. 150 mm^3—around day 12. Caliper and xenogen images were monitored. Treatment groups n=13-15/group. […] Samples for FACs analysis were collected on day 23 post implant. Using FACS, cells were assayed for the level of CD11b and Gr-1.

[7] = tested on: LPS induced neutrophil influx in bronchoalveolar lavage fluid; experiment: LPS-induced neutrophilia, oral administration; type: in vivo; conditions: rat, p.o., 4 hours post-LPS challenge, dose dependent
Method: (§4) This study also includes assessment of the exposure to the compounds in plasma and lung tissues.
(§5) Ref C is budesonide p.o. The compound was administered p.o. and about 1 hour later, LPS was administered intra-tracheally and plasma was collected. After about 5 hours, plasma and bronchoalveolar lavage samples were collected.

[8] = tested on: spleen T cell proliferation; experiment: Ex vivo T-cell proliferation assay with tumor-derived cells from treated mice; type: in vivo
human hepatocytes = experiment: Human hep viability; type: cell-based; conditions: Hepatocyte
[9] = Oral PK in the rat LPS studies (free plasma concentration); type: in vivo; conditions: plasma, read-out: Free Plasma Conc
Method: as §4, §5

Plasma protein binding = type: in vitro ADME; conditions: all species, read-out: PPB % free @ 1 uM
[10] = tested on: tumor-associated myeloid cells in LLC tumor brei; experiment: Flow cytometry of tumor-associated myeloid cells, LLC tumor brei model; type: in vivo, mouse
Method: as §1, §2

[11] = Pharmacokinetics in monkey, oral; type: in vivo; conditions: 5 mg/kg oral
From the text: Compound BB's oral exposure is high in rat, dog and monkey. Good oral bioavailability and low clearance in rodent and non-rodent animal species results in high oral exposure.

**Q.** With `C[C@H](NC(=O)c1c(N)nn2cccnc12)c1cc2cccc(C#Cc3cnn(C)c3)c2c(=O)n1-c1ccccc1` [Compound BB] as the compound, how does the “ex vivo whole blood stimulation of phospho-AKT in monocytes” value (phospho-AKT in monocytes) read?
**A.** The value was “inhibits”.

**Q.** What about the “ex vivo whole blood stimulation of phospho-AKT in T cells” value (phospho-AKT in T cells) of the same compound?
**A.** The value was “inhibits”.

**Q.** And the “VEGF and ARG1 in MDSC differentiation assay” value [1]?
**A.** Its value is “suppressed”.

**Q.** What about the “monocytic iMCs” value [2] of the same compound?
**A.** The value was “decreased”.

**Q.** And the cellular membrane permeability [3]?
**A.** The cellular membrane permeability was “high cellular membrane permeability”.

**Q.** What about the “Papp [10−6 cm/s] @ 10 uM” value ([3]; 10 uM) of the same compound?
**A.** The value was “High”.

**Q.** And the oral exposure [4]?
**A.** The oral exposure was “high”.

**Q.** What about the “suppression of T cell proliferation by cells derived from CT26 mouse tumors” value [5] of the same compound?
**A.** The value was “can release the suppression”.

**Q.** And the metabolic stability [6]?
**A.** Its metabolic stability is “high metabolic stability”.

**Q.** What about the half-life at 20 µM ([6]; liver microsomes, microsomes, all species (incl rat)) of the same compound?
**A.** Its half-life at 20 µM is greater than 2 h.

**Q.** What about the “combination effect (isobologram)” value (TMD8 cell line) of the same compound?
**A.** The value was “synergistic effect”.

**Q.** What about the “tumor growth, LLC tumor brei model” value (LLC tumor brei; Compound BB 15 mg/kg QD PO, cyclophosphamide 50 mg/kg EOD IP) of the same compound?
**A.** Its value is “reduced tumor growth”.

**Q.** And the “CD206 population in LLC tumors (FACS)” value (LLC tumor brei; Compound BB PO QD alone or with cyclophosphamide)?
**A.** The value was “decrease in the CD206 population”.

**Q.** And the “neutrophil in bronchoalveolar lavage fluid (BALF)” value [7]?
**A.** Its value is “reduced neutrophil”.

**Q.** And the “inhibition of spleen T cell proliferation by cells isolated from tumors of treated mice” value ([8]; compared to tumor derived cells from vehicle treated mice)?
**A.** Its value is “less inhibitory of spleen T cell proliferation”.

**Q.** What about the immune suppressive environment ([8]; ex vivo T-cell proliferation assay) of the same compound?
**A.** The immune suppressive environment was “reduces immune suppressive environment”.

**Q.** And the IC50 (human hepatocytes)?
**A.** The IC50 was 10 to 25 µM.

**Q.** And the concentration at 1.5 h ([9]; oral, p.o. 0.5 mg/kg, 1.5h (time of LPS challenge))?
**A.** Its concentration at 1.5 h is 2.1 nM.

**Q.** What about the concentration at […] ([9]; oral, p.o. 0.5 mg/kg, 5.5h (approximately 4 hours post LPS challenge)) of the same compound?
**A.** The concentration at […] was 2.6 nM.

**Q.** And the concentration at 1.5 h ([9]; po, p.o. 1.5 mg/kg, 1.5h)?
**A.** Its concentration at 1.5 h is 5.2 nM.

**Q.** And the concentration at […] ([9]; po, p.o. 1.5 mg/kg, 5.5h)?
**A.** The concentration at […] was 5.4 nM.

**Q.** What about the concentration at 1.5 h ([9]; po, p.o. 5 mg/kg, 1.5h) of the same compound?
**A.** Its concentration at 1.5 h is 22.6 nM.

**Q.** What about the concentration at […] ([9]; po, p.o. 5 mg/kg, 5.5h) of the same compound?
**A.** The concentration at […] was 24.7 nM.

**Q.** What about the fraction unbound at 1 uM (Plasma protein binding) of the same compound?
**A.** Its fraction unbound at 1 uM is 0.01 to 0.05.

**Q.** What about the “number of infiltrating TAMs” value ([10]; FIG. 38A) of the same compound?
**A.** Its value is “decreased”.

**Q.** What about the “CD206 staining (M2 polarized suppressive macrophages)” value ([10]; FIG. 39) of the same compound?
**A.** Its value is “reduced”.

**Q.** What about the “oral exposure (plasma concentrations within 24 hours)” value [11] of the same compound?
**A.** The value was “high”.
